Consider 3 compounds from publication PMC8436246 (ACS Medicinal Chemistry Letters, 2021).

Series [1] deals with EMT6 tumor-implanted BALB/c mice. Description: pharmacokinetic-pharmacodynamic experiments in EMT6 tumor-bearing BALB/c mice. Type of series: in vivo.
A short description of series [2]: mouse pharmacokinetic study, oral bioavailability. The series is classed as in vivo, C57BL/6 mice.
Series [3] is described as follows: in vitro stability in mouse hepatocytes. The series is classed as in vitro ADME.

With `O=C(O)[C@H]1NCC[C@H]1CCCB(O)O` [Compound 4a], the “serum and tumor arginine levels” value in series [1] (30, 100, 300 mpk BID p.o., 1 h after fourth dose, vs saline control) is reported as “substantially elevated”. For the same compound, the “pharmacodynamic effects on serum and tumor arginine levels with or without codosing of mDX400” value in series [1] (p.o. 250 mpk BID, 14 day, ± mDX400 i.p. 5 mpk Q5D) is listed as “comparable pharmacodynamic effects”. The “tolerability / body weight” value in series [1] (p.o. 250 mpk BID, alone and with mDX400 (i.p. 5 mpk Q5D), 14 day repeated dosing) is listed as “well tolerated”.
Regarding `C[C@H](N)C(=O)N[C@H]1CN[C@H](C(=O)O)[C@@H]1CCCB(O)O` [Compound 23], the “combined exposures of 18 and 23 (% F)” value in series [2] (23 dosed orally, 10 mpk, mouse) was 27 % F. Also, the clearance result in series [2] (mouse pharmacokinetic experiments) is listed as “rapid clearance”.
For the compound `CC(C)[C@H](N)C(=O)N[C@H]1CN[C@H](C(=O)O)[C@@H]1CCCB(O)O` [Compound 24a], the metabolic stability entry in series [3] is “good metabolic stability was not achieved”.
